Results on six compounds are retold here after patent US9155740B2, “Compositions and methods for treatment and prevention of hyperuricemia related health consequences” (priority 2004, dated 2015).

For assay [1], the system named is fructose fed rats. In words: 60% dextrose vs 60% fructose diet, pair-fed, lowering uric acid with benzbromarone. Conditions: 4 weeks. In kind it is in vivo, rat. As to the method: Comparison between 60% dextrose and 60% fructose on the development of metabolic syndrome and the effect of lowering uric acid with Benzbromarone: Rats were pair-fed with 60% dextrose diet or 60% fructose diet for 4 weeks, which are isocaloric. […] At 4 weeks, total food intake per animal was calculated from the food left over. Total food intake is the subtraction of the left-over food from total administered food (1425 g/rat/28days). In addition to the above two groups, a third group of fructose fed rats were administered BZ. Body weight was measured weekly. At 4 weeks, after 5 h fasting, insulin, triglyceride and uric acid were measured. All protocols were approved by the Animal Care Committee of the University of Florida.
(§1) Measurements: Systolic blood pressure was assessed as the mean value of 3 consecutive measurements obtained in the morning using a tail-cuff sphygmomanometer (Visitech BP2000, Visitech Systems, Inc., Apex, N.C.). All animals were preconditioned for blood pressure measurements 1 wk before each experiment. Serum uric acid was measured by uricase method. Blood glucose was measured with the ONE TOUCH system (Johnson&Johnson, Milpitas, Calif.). Rat insulin was measured by ELISA (Crystal Chem. Inc., Chicago, Ill.). Insulin sensitivity index was calculated using the formula of Matsuda and DeFronzo (10,000/square root of [fasting glucose×fasting insulin]×[mean glucose×mean insulin during OGTT]), which is highly correlated (r=0.73, p<0.0001) with rate of whole-body glucose disposal during the euglycemic insulin clamp (Matsuda M and DeFronzo R A, Insulin sensitivity indices obtained from oral glucose tolerance testing: comparison with the euglycemic insulin clamp, Diabetes Care 22: 1462-1470, 1999). Serum lipids were measured with an autoanalyzer (VETAce, Alfa Wassermann Inc, West Caldwell, N.J.) or Triglyceride-SL assay kit (Diagnostic chemicals Limited, Charlottetown, PE, Canada).

Assay [2] concerns fructose-fed rats. In words: Prevention of fructose-induced hyperuricemia with allopurinol. In kind it is in vivo, rat. As to the method: […] Three groups (control, Fr, and Fr+AP; n=8 each) were designed for this prevention study. Body weight was measured every 2 weeks. Food consumption was measured for 3 days at 8 weeks.
as §1
(§2) Statistical analysis. All values presented are expressed as mean±SD and analyzed by one-way analysis of variance (ANOVA) or by unpaired Student's t test. Significance was defined as p<0.05.

The test system of assay [3] is Male Sprague-Dawley rats. In words: Oxonic acid-induced hyperuricemia in rats, serum uric acid, NOx and blood pressure. In kind it is in vivo, rat. As to the method: Male Sprague-Dawley rats were housed in standard conditions and fed normal diets. Hyperuricemia was induced with an uricase inhibitor, oxonic acid (OA; 750 mg/kg/day), by gavage, with control rats receiving vehicle. Allopurinol (AP) was used to block hyperuricemia by placing AP in the drinking water (150 mg/L). Rats were divided into four groups: (1) Control, (2) AP only, (3) OA only, and (4) OA+AP. Systolic blood pressure was measured using a tail-cuff sphygmomanometer. The amount of drinking water consumed and changes in body weight were noted. Rats were sacrificed at one and seven days. Serum was analyzed for uric acid concentration and nitrites/nitrates (NOx) by chemiluminescence method. (Prabhakar SS: Inhibition of mesangial iNOS by reduced extracellular pH is associated with uncoupling of NADPH oxidation. Kidney Int 61:2015-2024, 2002). Statistical analysis between subgroups was performed using ANOVA.

Assay [4] deals with fructose-fed rats. In words: Treatment of fructose-induced hyperuricemia with allopurinol. In kind it is in vivo, rat. The note with it: for body weight: treatment study, p=NS.
Description: Treatment of fructose-induced hyperuricemia with allopurinol: Male Sprague-Dawley rats (150-200 g) were housed in standard conditions and fed control (n=7) or 60% fructose diet (Harlan, Madison, Wis., n=14) for 10 weeks. “Control diet” contains 46% carbohydrate, which is mainly composed of starch whereas the fructose diet contained 60% fructose as the carbohydrate. The caloric content of these diets are 3.1 kcal/g and 3.6 kcal/g, respectively. At 4 weeks, blood sample were obtained at 11 am in the morning after 4 h fasting. Half of the fructose-fed rats were administered allopurinol (AP, 150 mg/L in the drinking water) (Sigma, St. Louis, Mo.) for an additional 6 weeks to lower serum uric acid. Fresh drinking water containing allopurinol was replaced every 2 days. Rats were divided into 3 groups: Control; Fructose (Fr); and Fr+AP. At 10 weeks an oral glucose tolerance test was performed, in which rats were fasted overnight (16 hours), and then administered 1.5 g/kg OGTT (50% glucose solution) by gavage. Blood was sampled at 0, 30, 60, 120 min for blood glucose and serum insulin measurement. Rats were then sacrificed.
as §1, §2

Assay [5] has as its system endothelial function. The note with it: infusion into forearm vein, immediately after infusion; cited from earlier work.
For assay [6], the system named is Rat Aortic Artery (AA) segments. The experiment in a line: Acetylcholine-induced vasorelaxation of rat aortic artery segments. Conditions: uric acid 0-15 mg/dl; acetylcholine 5 μM; U-46619 0.5 μM. As to the method: Vasorelaxation of rat Aortic Artery (AA) segments: Rat AA segments (1-0.5 mm diameter×3-4 mm length) were isolated from the 2- to 3- month-old rats, AA segments were suspended in individual organ chambers (Radnoti Four-Unit Tissue Bath System) with 5 ml in Earl's solution, oxygenated with 95% O2 and 5% CO2 at 37° C. After 1 hr equilibration of resting force of 1.5 g, vascular smooth muscle cell or endothelium integrity in this AA segment was confirmed by monitoring 0.5 μM U-46619 (a thromboxane A2 mimetic, sigma)-mediated AA contraction or acetylcholine (5 μM)-mediated vasodilation, respectively. After washing several times, the segments were incubated with various concentration of uric acid (0-15 mg/dl ) in organ bath chamber for 30 min. Stable construction was induced by 0.5 μM U-46619 for 10 min prior to acetylcholine-induced vasorelaxation. The vascular tensions were continuously monitored with an isometric force transducer (Harvard Apparatus, Holliston, Mass.). To standardize the data, U-46619-induced stable increase in vascular tone was set as 100%.

The subject of assay [7] is cultured bovine endothelial cells. The note with it: cited from earlier work.
Assay [8] deals with diabetic C57BL6 and eNOS KO mice. The experiment in a line: Streptozotocin diabetic C57BL6 and eNOS KO mice with insulin treatment. In kind it is in vivo, mouse. As to the method: Experiments were performed following protocol approval by the Animal Care and Use Committee of the University of Florida (IACUC). C57B1/6J mice (C57BL6) and C57BL/6JNos3tm1Unc (eNOS KO mice) (Jackson Laboratory, Bar Harbor, Me.) aged 8 weeks were rendered diabetic with intraperitoneal injections of streptozotocin (STZ) (100 mg/kg/day for 2 consecutive days) freshly dissolved in 0.1M citrate buffer (pH 4.5). Development of diabetes (defined by blood glucose greater than 250 mg/dL) was verified 1 week after the first STZ injection with ONE TOUCH system (Johnson & Johnson, Milpitas, Calif.). For blood sugar control, a single insulin pellet (Linshin Canada Inc, Ontario, Canada) was implanted subcutaneously for 5 months. Blood glucose was monitored every 2 weeks and if the fasting blood glucose was >200 mg/dl, an additional insulin pellet was inserted. Mice were housed in the animal care facility with 12-hour light/dark cycle and allowed free access to food and water. Body weight was recorded monthly. At 3 and 5 months, mice were euthanized for histological analysis. A total of 6 groups were examined with 10 mice for each group at starting points. Non-diabetic (non-DM), diabetic (DM), and diabetic mice (C57BL6 and eNOS KO) with insulin treatment (DMIns) were examined. Systolic blood pressure was assessed as the mean value of 5-10 consecutive measurements obtained in the morning using a tail-cuff sphygmomanometer (Visitech BP2000, Visitech Systems, Inc., Apex, N.C.). BUN was measured by BUN assay (Diagnostic chemicals limited, PE, Canada). Urine in bladder was obtained for urinary albumin excretion at sacrifice. Albumin-to-Creatinine ratio was measured with Albuwell M (Exocell Inc., Philadelphia, Pa.) and Liquid Creatinine Assay (Bioquant, San Diego, Calif.), respectively.
Kidneys were fixed in Fekete's fixative (mixture of ethanol, distilled water, 37% formalin and glacial acetic acid), and embedded in paraffin. 2-μm sections were stained with the periodic acid-Schiff reagent (PAS) or the periodic acid-methenamine silver (PAM) and counterstained with hematoxylin. Indirect immunoperoxidase staining was performed using antibodies to the endothelial antigen, thrombomodulin (TM) (Yuzawa Y, Brentjens J R, Brett J, Caldwell P R, Esposito C, Fukatsu A, Godman G, Stern D, Andres G: Antibody-mediated redistribution and shedding of endothelial antigens in the rabbit. J Immunol 150: 5633-5646, 1993) or CD34 (BD Pharmingen, San Jose, Calif.) (Fina L, Molgaard H V, Robertson D, Bradley N J, Monaghan P, Delia D, Sutherland D R, Baker M A, Greaves M F: Expression of the CD34 gene in vascular endothelial cells. Blood 75: 2417-2426, 1990), and to vascular smooth muscle cells with anti-smooth muscle actin (Abcam, Cambridge, Mass.). To detect endothelial cell proliferation, double immunostaining was performed with an antibody to the […], Ki67 (Abcam, Cambridge, Mass.) and thrombomodulin. Color was developed using DAB as a chromogen. In double staining, Bjoran Purple (BioCare Medical, Concord, Calif.) was used for thrombomodulin.
All quantifications were performed in a blinded fashion. Using coronal sections of the kidney, all glomeruli (100-200 of glomeruli per each animal) were examined. Glomerular mesangial expansion, mesangiolysis, and nodular lesions were evaluated. The percentage of mesangiolysis was calculated as the number of glomeruli with mesangiolysis divided by that of total glomeruli. Arteriolar morphology was assessed by indirect peroxidase immunostaining for alpha-smooth muscle actin. […] Afferent arteriolar wall thickness was measured by computer image analysis. For each arteriole, the outline of the vessel and its internal lumen (excluding the endothelium) were generated by using computer analysis to calculate the total wall area (outline-inline) in a minimum of 12 arterioles. Vessels that were cross-sectioned or not sectioned transversally, providing an asymmetrical wall, were excluded from the present study. […]

[9] abbreviates: wildtype and eNOS knockout mice.

Regarding `CCc1oc2ccccc2c1C(=O)c1cc(Br)c(O)c(Br)c1` [benzbromarone, Benzbromarone], in assay [1], the hyperinsulinemia entry is “significantly improved”, the hypertriglyceridemia result is listed as “significantly improved” and the hyperuricemia result is given as “significantly improved”.
Turning to `Oc1ncnc2[nH]ncc12` [Allopurinol, allopurinol], the “elevation of uric acid by fructose diet” value in assay [2] (allopurinol given simultaneously with fructose diet, over the 6 week period) is recorded as “prevented”. The fasting insulin levels result in assay [2] (compared to fructose-fed rats, 8 weeks) was “significantly lower”. Moreover, in assay [2] (prevention study), the development of hypertriglyceridemia result is on record as “completely prevented”. In addition, the final weight in assay [2] (prevention study, 8 weeks) came to 426 ± 26 g. Also, the systolic blood pressure in assay [3] (7 days, OA vs OA/AP, p=NS) is reported as 147±11 mm Hg; in assay [4] (fructose-fed rats, remained higher than control), “significantly reduced”. For the same compound, the “change in NOx concentration” value in assay [3] (rats treated with AP alone) is listed as “did not show a significant change”. For the same compound, the “change in serum UA” value in assay [3] (rats treated with AP alone) is “did not show a significant change”. The serum uric acid entry in assay [4] (AP 150 mg/L drinking water for 6 weeks from week 4 of fructose diet) is reported as “effective at lowering uric acid”. The “insulin sensitivity (index)” value in assay [4] (OGTT at 10 weeks) is “improved insulin sensitivity”. Besides, the “hypertriglyceridemia (serum triglycerides)” value in assay [4] (fructose-fed rats) is “abolished”. The “urinary excretion of uric acid” value in assay [4] (fructose-fed rats, 9 weeks) is given as “prevented the reduced excretion of uric acid”. For the same compound, the fasting hyperinsulinemia result in assay [4] (fructose-fed rats, 10 weeks) is recorded as “reversed”. For the same compound, the postprandial hyperinsulinemia entry in assay [4] (oral glucose tolerance test at 10 weeks) is “partially but significantly lower”. Besides, the body weight in assay [4] (10 weeks) turned out to be 474 ± 37 g.
For the compound `O=c1[nH]c(=O)c2[nH]c(=O)[nH]c2[nH]1` [uric acid], the “endothelial function measured by brachial artery reactivity” value in assay [5] is “does not impair endothelial function”. Also, the “vasorelaxation of aortic arterial rings in response to acetylcholine” value in assay [6] is “dose-dependently blocked”. Further, the NO levels entry in assay [7] is given as “potently reduce NO levels”.
insulin: in assay [8] (3 and 5 months), the “development of mesangial expansion” value was “blocked”, the development of mesangiolysis entry was “blocked” and the “development of the nodular lesions” value is reported as “blocked”. For the same compound, the blood glucose levels result in assay [8] (both wildtype and eNOS knockout mice) was “significant improvements”. In addition, in assay [8] (diabetic C57BL6 and eNOS KO mice, whole kidney), the “up-regulation of VEGF mRNA expression” value was “blocked”. The “increase in inner lumen size of afferent arteriole” value in assay [8] (diabetic eNOS KO mice) was “blocked”. Moreover, in assay [8] (diabetic mice, renal cortex), the “increase in endothelial cell proliferation and number” value is on record as “largely corrected”. Further, the blood pressure entry in assay [8] (eNOS knockout mice) is “significantly improved”. Besides, the survival entry in assay [8] (eNOS knockout mice, 5 months) is “significantly improved”. Besides, in assay [8] (setting [9]), the development of proteinuria result is recorded as “prevented”, the “development of renal dysfunction” value is “prevented” and the “development of renal hypertrophy” value is “prevented”.
For `O=C(CO)[C@@H](O)[C@H](O)[C@H](O)CO` [Fr, fructose], the final weight in assay [2] (prevention study, 8 weeks) amounted to 456 ± 24 g. In assay [4] (10 weeks), the body weight worked out at 522 ± 57 g.
As to `O=C(O)c1nc(=O)[nH]c(=O)[nH]1` [OA, oxonic acid], in assay [3] (at both 1 day and 7 days, vs control), the “reduction of serum NOx in hyperuricemic rats” value is recorded as 40-50%.
